Patent US20230042653A1, “COMBINATIONS” (Recurium IP Holdings, LLC, priority 2019, published 2023)

System: MCF-7 xenograft tumor
Assay: MCF-7 xenograft tumor model, combination study
Type: in vivo
Details: single agent, FIG. 3

Structure (SMILES): C=CCn1c(=O)c2cnc(Nc3ccc(N4CCN(C)CC4)cc3)nc2n1-c1cccc(C(C)(C)O)n1 [Compound 1]
- TGI (dose not printed for the single agent): 122.8%

Structure (SMILES): C[C@@H]1Cc2c([nH]c3ccccc23)[C@@H](c2c(F)cc(/C=C/C(=O)O)cc2F)N1C12CC(C1)C2 [Compound (A)]
- TGI (10 mg/kg): 128.3%
